Source: patent publication US11338004B2, “Composition for preventing or treating cranial nerve disease comprising fomes fomentarius extract, fraction thereof, or compound isolated therefrom as active ingredient” (priority 2015, dated 2022)

Tests used:
[1] = molecular target: xanthine oxidase (Homo sapiens, UniProt P47989); experiment: Xanthine oxidase inhibitory activity; assay type: biochemical
Procedure: 0.2 ml of the substrate solution in which 2 mM xanthine was dissolved was added to 0.1 ml of a sample solution and 0.6 ml of 0.1 M potassium phosphate buffer at pH 7.5, and 0.1 ml of 0.2 unit/ml xanthine oxidase was added thereto, followed by reaction at 37° C. for 5 minutes. Then, 1 ml of 1N HCl was added to terminate the reaction, and then the absorbance of the uric acid produced in the reaction solution was measured at 292 nm. The inhibitory activity of xanthine oxidase was shown by the absorbance reduction rate of the addition group and the non-addition group of the sample solution.
Xanthine oxidase acts as a rate-limiting enzyme in the terminal oxidation of all purines and is an enzyme that acts as a source of oxidizing agents such as superoxide radicals and hydrogen peroxide. The superoxide anion inhibition by xanthine/xanthine oxidase enzymes is shown by superoxide anion scavenging activity and xanthine oxidase inhibition and has biologically important meaning through inhibition of gout and formation of free radicals. The superoxide radical scavenging effects of 10, 20, 40, 80, 160, 320, and 640 μg mL-1 of each fraction extract of the Fomes fomentarius were compared using butylated hydroxy anisole (BHA) as a positive control group.
The superoxide radical scavenging effects of 10, 20, 40, 80, 160, 320, and 640 μg mL-1 of the Acer tegmentosum maxim extract were compared using butylated hydroxy anisole (BHA) as a positive control group.
The superoxide radical scavenging effects of 10, 20, 40, 80, 160, 320, and 640 μg mL-1 of the berchemia berchemiaefolia extract were compared using butylated hydroxy anisole (BHA) as a positive control group.
The superoxide radical scavenging effects of 10, 20, 40, 80, 160, 320, and 640 μg mL-1 of the Lithospermum erythrorhizon extract were compared using butylated hydroxy anisole (BHA) as a positive control group.

[2] = DPPH radical scavenging activity
Procedure: The present experiment used the property that the hydrazyl of diphenylpicrylhydrazyl (DPPH) used in the present experiment has a property of easily accepting a hydrogen atom since the nitrogen atom is unstable, so as to react with the antioxidant material to accept the hydrogen atom to lose its own orthochromatism.
(§1) First, in order to measure DPPH radical scavenging activity of the Fomes fomentarius fraction, 1.9 ml of 0.2 mM DPPH solution (99.5% ethanol) was added to 0.1 ml of solutions (control: 99.5% ethanol) in which the concentrated dried material of each Fomes fomentarius substance was prepared at 7 concentrations of 10, 20, 40, 80, 160, 320 and 640 μg/ml, respectively. The mixture was shaken with a vortex mixer for 10 seconds and then incubated at 37° C. for 30 minutes. Then, the absorbance was measured at 517 nm using a spectrophotometer.
As a positive control drug, L-ascorbic acid was prepared at […] of 10, 20, 40, 80, 160, 320, and 640 μg/mL (99.5% ethanol).
The present inventors measured DPPH radicals scavenging activity in the same manner as in Example <2-2> above using nonadecanone (2-nonadecanone) and docosenol (cis-13-Docosenol) compounds found in the above and Fomes fomentarius CHCl3 fraction of the present disclosure.
as §1, with “Acer tegmentosum maxim extract,” for “Fomes fomentarius fraction,”, “Acer tegmentosum maxim material” for “Fomes fomentarius substance”
As a positive control, L-ascorbic acid was prepared at […] of 10, 20, 40, 80, 160, 320, and 640 μg/mL (99.5% ethanol).
as §1, with “berchemia berchemiaefolia extract,” for “Fomes fomentarius fraction,”, “berchemia berchemiaefolia material” for “Fomes fomentarius substance”
as §1, with “Lithospermum erythrorhizon extract,” for “Fomes fomentarius fraction,”, “Lithospermum erythrorhizon material” for “Fomes fomentarius substance”

[3] = molecular target: AChE (Homo sapiens, UniProt P22303); experiment: Acetylcholinesterase inhibitory activity; assay type: biochemical; settings: read-out: acetylcholinesterase inhibitory activity (%)
Procedure: AChE and acetylthocholine iodine (ATC) were dissolved in 100 mM phosphate buffer (pH 8.0) to prepare 0.25 U/mL and 75 mM, respectively. […] 2.8 mL of phosphate buffer (100 mM, pH 8.0), 30 μL of AChE (0.25 U/mL), and 100 μL of DTNB were added to 30 μL of the extract, and were mixed. Then, the mixture was preincubated at 37° C. for 10 minutes. Then, 30 μL of substrate ATC was added thereto and was reacted at 37° C. for 3 minutes, and then the absorbance was measured at 412 nm. As a control group, 30 μL of 100 mM phosphate buffer (pH 8.0) was added instead of the extract, and then was measured.

Chain of xanthine oxidase (P47989 whole entry, species assumed): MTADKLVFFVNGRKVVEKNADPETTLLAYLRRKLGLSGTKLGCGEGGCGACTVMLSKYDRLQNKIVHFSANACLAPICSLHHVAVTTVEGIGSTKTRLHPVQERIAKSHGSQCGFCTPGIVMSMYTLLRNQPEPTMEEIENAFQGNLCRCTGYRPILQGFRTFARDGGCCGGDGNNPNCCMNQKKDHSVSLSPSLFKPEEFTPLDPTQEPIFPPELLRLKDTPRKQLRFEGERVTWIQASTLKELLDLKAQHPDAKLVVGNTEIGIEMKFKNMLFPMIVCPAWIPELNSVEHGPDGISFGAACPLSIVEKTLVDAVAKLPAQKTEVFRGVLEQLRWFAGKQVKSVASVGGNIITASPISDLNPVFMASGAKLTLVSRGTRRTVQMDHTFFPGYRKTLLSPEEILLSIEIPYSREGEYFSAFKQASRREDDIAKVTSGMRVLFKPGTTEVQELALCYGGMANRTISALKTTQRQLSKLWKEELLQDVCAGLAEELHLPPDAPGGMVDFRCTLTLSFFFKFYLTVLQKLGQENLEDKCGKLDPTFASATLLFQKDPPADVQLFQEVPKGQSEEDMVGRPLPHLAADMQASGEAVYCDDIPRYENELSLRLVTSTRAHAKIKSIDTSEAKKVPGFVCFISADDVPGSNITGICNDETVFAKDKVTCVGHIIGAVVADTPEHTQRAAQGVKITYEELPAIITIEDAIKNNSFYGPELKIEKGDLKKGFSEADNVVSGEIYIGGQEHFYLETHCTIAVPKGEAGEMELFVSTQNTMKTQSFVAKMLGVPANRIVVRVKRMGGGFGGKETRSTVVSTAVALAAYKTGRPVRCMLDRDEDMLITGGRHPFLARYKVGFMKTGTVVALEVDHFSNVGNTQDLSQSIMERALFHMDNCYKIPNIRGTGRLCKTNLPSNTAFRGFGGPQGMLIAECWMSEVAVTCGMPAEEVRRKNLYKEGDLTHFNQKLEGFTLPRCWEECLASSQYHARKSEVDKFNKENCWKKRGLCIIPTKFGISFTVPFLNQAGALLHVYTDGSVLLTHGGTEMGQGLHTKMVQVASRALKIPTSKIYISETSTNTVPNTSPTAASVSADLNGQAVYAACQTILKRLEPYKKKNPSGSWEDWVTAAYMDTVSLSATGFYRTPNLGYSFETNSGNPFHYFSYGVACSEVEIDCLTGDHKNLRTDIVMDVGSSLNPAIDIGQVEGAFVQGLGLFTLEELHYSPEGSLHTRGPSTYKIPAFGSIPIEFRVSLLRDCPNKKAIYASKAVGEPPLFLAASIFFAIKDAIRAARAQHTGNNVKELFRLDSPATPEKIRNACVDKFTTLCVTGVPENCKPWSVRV
Chain of AChE (P22303 32-614): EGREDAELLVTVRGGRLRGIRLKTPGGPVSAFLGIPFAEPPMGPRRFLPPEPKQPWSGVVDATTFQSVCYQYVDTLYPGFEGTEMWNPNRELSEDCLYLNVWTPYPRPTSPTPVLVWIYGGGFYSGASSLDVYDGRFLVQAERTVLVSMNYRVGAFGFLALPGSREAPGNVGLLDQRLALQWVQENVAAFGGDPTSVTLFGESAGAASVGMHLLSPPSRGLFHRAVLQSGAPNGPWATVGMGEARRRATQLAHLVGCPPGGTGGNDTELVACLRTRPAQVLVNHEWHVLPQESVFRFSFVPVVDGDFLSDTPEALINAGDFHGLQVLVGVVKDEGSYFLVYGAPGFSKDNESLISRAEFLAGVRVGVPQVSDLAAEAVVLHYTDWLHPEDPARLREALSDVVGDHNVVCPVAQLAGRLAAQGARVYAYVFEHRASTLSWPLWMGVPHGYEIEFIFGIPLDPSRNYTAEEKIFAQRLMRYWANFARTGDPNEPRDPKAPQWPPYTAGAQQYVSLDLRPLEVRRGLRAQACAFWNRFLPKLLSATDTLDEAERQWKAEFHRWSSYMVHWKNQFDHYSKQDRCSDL

COc1ccc(O)c(C(C)(C)C)c1 [BHA, butylated hydroxyanisole]
xanthine oxidase inhibitory activity ([1]; 10 μg/mL): 24.1±0.1
xanthine oxidase inhibitory activity ([1]; 20 μg/mL): 35.8±0.3
xanthine oxidase inhibitory activity ([1]; 40 μg/mL): 58.1±0.4
xanthine oxidase inhibitory activity ([1]; 80 μg/mL): 68.1±0.5
xanthine oxidase inhibitory activity ([1]; 160 μg/mL): 76.1±0.8
xanthine oxidase inhibitory activity ([1]; 320 μg/mL): 83.5±1.2
xanthine oxidase inhibitory activity ([1]; 640 μg/mL): 85.6±1.3
xanthine oxidase inhibition of the positive control group ([1]; concentration not stated (Example 2-18)): 94.1%

O=C1O[C@H]([C@@H](O)CO)C(O)=C1O [ascorbic acid, L-ascorbic acid, reference compound]
DPPH radical scavenging activity (% antioxidant activity) ([2]; 10 μg/mL): 70.5±4.5% and about 70.5%
DPPH radical scavenging activity (% antioxidant activity) ([2]; 20 μg/mL): 71.8±12.5% and about 71.8%
DPPH radical scavenging activity (% antioxidant activity) ([2]; 40 μg/mL): 74.1±8.2% and about 74.1%
DPPH radical scavenging activity (% antioxidant activity) ([2]; 80 μg/mL): 77.8±7.6% and about 77.8%
DPPH radical scavenging activity (% antioxidant activity) ([2]; 160 μg/mL): 80.6±4.5% and about 80.6%
DPPH radical scavenging activity (% antioxidant activity) ([2]; 320 μg/mL): 83.2±9.6% and about 83.2%
DPPH radical scavenging activity (% antioxidant activity) ([2]; 640 μg/mL): 84.5±7.7% and about 84.5%
inhibition at 10 µg/mL [3]: 35.8 ± 3.5%
inhibition at 20 µg/mL [3]: 45.1 ± 4.5%
inhibition at 40 µg/mL [3]: 51.8 ± 6.5%
inhibition at 80 µg/mL [3]: 61.1 ± 4.1%
inhibition at 160 µg/mL [3]: 61.9 ± 3.8%
inhibition at 320 µg/mL [3]: 76.1 ± 4.6%
inhibition at 640 µg/mL [3]: 87.9 ± 5.6%
inhibition at 10 µg/mL ([1]; 10 μg/mL): 24.1 ± 1.8%
inhibition at 20 µg/mL ([1]; 20 μg/mL): 35.1 ± 2.5%
inhibition at 40 µg/mL ([1]; 40 μg/mL): 58.1 ± 0.9%
inhibition at 80 µg/mL ([1]; 80 μg/mL): 68.1 ± 1.1%
inhibition at 160 µg/mL ([1]; 160 μg/mL): 76.1 ± 2.5%
inhibition at 320 µg/mL ([1]; 320 μg/mL): 83.5 ± 3.5%
inhibition at 640 µg/mL ([1]; 640 μg/mL): 85.6 ± 2.8%
